Consider 22 compounds from ChEMBL document CHEMBL1136350, “Design and synthesis of orally active inhibitors of TNF synthesis as anti-rheumatoid arthritis drugs” (Bioorg Med Chem Lett, 2003).

Broadly, the Cmax is the peak of the concentration-time curve. One may read the IC50 as the concentration that inhibits the measured activity by half. For orientation: AUC means concentration integrated over time. As usually defined, the inhibition in vivo is the change of the read-out against control, counted positive when it falls. Higher therefore signals a strong effect.

Data set [1] can be described thus: Cmax in dog plasma after 30mg/kg oral dose. Format: ADME, organism-based, Canis lupus familiaris. Also on record: dose 30 mg/kg, route oral.
A short description of data set [2]: Cmax in rat plasma after 30mg/kg oral dose. The format is ADME, organism-based. Details: dose 30 mg/kg, route oral; call rule not given here.
Another data set deals with MONO-MAC-6. The data set is described as follows: Inhibitory activity against monomac6 (MM6) human monocytic cell line. The format is functional, cell-based.
The nature of data set [3]: Area under curve was determined in rat after oral administration at a concentration 30 mg/kg. The format is ADME, organism-based. Also on record: dose 30 mg/kg, route oral. The conditions noted are these: in vivo.
The next data set concerns Rattus norvegicus. The data set is described as follows: Area under curve was determined in rat after oral administration at a concentration 30 mg/kg; NA= Not active. Details: dose 30 mg/kg, route oral. The conditions noted are these: in vivo. Format: ADME, organism-based.
The nature of data set [4]: Plasma concentration in dogs after 2 hr at 30mg/kg oral dose. The format is ADME, organism-based, Canis lupus familiaris. The conditions noted are these: dog, read-out: Conc_plasma.
A short description of data set [5]: Plasma concentration in rats after 7 hr at 30mg/kg oral dose. The format is ADME, organism-based. The conditions noted are these: rat, read-out: Conc_plasma.
Data set [6] concerns Mus musculus. The data set is described as follows: Number of positive paws that was inflamed by murine collagen -induced arthritis(MCIA) in mice after peroral administration 13 day at a concentration 2 mg/kg. The format is functional. The conditions noted are these: route oral.
Data set [7] relates to Mus musculus. The data set is described as follows: Number of positive paws that was inflamed by murine collagen -induced arthritis(MCIA) in mice after peroral administration 13 day at a concentration 45 mg/kg. The format is functional. The conditions noted are these: route oral.
The test system of data set [8] is Mus musculus. The data set is described as follows: Number of positive paws that was inflamed by murine collagen -induced arthritis(MCIA) in mice after peroral administration 13 day at a concentration 5 mg/kg. The format is functional. The conditions noted are these: route oral.
The subject of data set [9] is Mus musculus. The data set is described as follows: Reduction of murine collagen -induced arthritis(MCIA) in mice after peroral administration at a concentration 120 mg/kg. The conditions noted are these: route oral. The format is functional.
The subject of data set [10] is Mus musculus. The data set is described as follows: Reduction of murine collagen -induced arthritis(MCIA) in mice after peroral administration at a concentration 15 mg/kg. The conditions noted are these: route oral. Format: functional.
The subject of data set [11] is Mus musculus. The data set is described as follows: Reduction of murine collagen -induced arthritis(MCIA) in mice after peroral administration at a concentration 2 mg/kg. The format is functional. The conditions noted are these: route oral.
Data set [12] relates to Mus musculus. The data set is described as follows: Reduction of murine collagen -induced arthritis(MCIA) in mice after peroral administration at a concentration 45 mg/kg. The conditions noted are these: route oral. The format is functional.
Data set [13] deals with Mus musculus. The data set is described as follows: Reduction of murine collagen -induced arthritis(MCIA) in mice after peroral administration at a concentration 5 mg/kg. The format is functional. The conditions noted are these: route oral.
Data set [14] deals with Mus musculus. The data set is described as follows: Number of positive paws that was inflamed by murine collagen -induced arthritis(MCIA) in mice after peroral administration 13 day at a concentration 120 mg/kg. The conditions noted are these: route oral. Format: functional.
Data set [15] deals with Mus musculus. The data set is described as follows: Number of paws at risk inflamed by murine collagen -induced arthritis(MCIA) in mice after peroral administration at a concentration 120 mg/kg. The format is functional. The conditions noted are these: route oral.
Data set [16] relates to Mus musculus. The data set is described as follows: Number of paws at risk inflamed by murine collagen -induced arthritis(MCIA) in mice after peroral administration at a concentration 15 mg/kg. Format: functional. The conditions noted are these: route oral.
Data set [17] deals with Mus musculus. The data set is described as follows: Number of paws at risk inflamed by murine collagen -induced arthritis(MCIA) in mice after peroral administration at a concentration 2 mg/kg. The format is functional. The conditions noted are these: route oral.
The subject of data set [18] is Mus musculus. The data set is described as follows: Number of paws at risk inflamed by murine collagen -induced arthritis(MCIA) in mice after peroral administration at a concentration 45 mg/kg. Format: functional. The conditions noted are these: route oral.
The test system of data set [19] is Mus musculus. The data set is described as follows: Number of paws at risk inflamed by murine collagen -induced arthritis(MCIA) in mice after peroral administration at a concentration 5 mg/kg. The format is functional. The conditions noted are these: route oral.
Data set [20] concerns Mus musculus. The data set is described as follows: Inhibition of murine collagen -induced arthritis(MCIA) in mice after peroral administration at a concentration 120 mg/kg. Format: functional. The conditions noted are these: route oral.
In data set [21] the test system is Mus musculus. The data set is described as follows: Inhibition of murine collagen -induced arthritis(MCIA) in mice after peroral administration at a concentration 15 mg/kg. The format is functional. The conditions noted are these: route oral.
Data set [22] concerns Mus musculus. The data set is described as follows: Inhibition of murine collagen -induced arthritis(MCIA) in mice after peroral administration at a concentration 2 mg/kg. The conditions noted are these: route oral. Format: functional.
Data set [23] concerns Mus musculus. The data set is described as follows: Inhibition of murine collagen -induced arthritis(MCIA) in mice after peroral administration at a concentration 45 mg/kg. Format: functional. The conditions noted are these: route oral.
For data set [24], the system named is Mus musculus. The data set is described as follows: Inhibition of murine collagen -induced arthritis(MCIA) in mice after peroral administration at a concentration 5 mg/kg. Format: functional. The conditions noted are these: route oral.
Data set [25] has as its system Mus musculus. The data set is described as follows: Number of positive paws that was inflamed by murine collagen -induced arthritis(MCIA) in mice after peroral administration 13 day at a concentration 15 mg/kg. Format: functional. The conditions noted are these: route oral.

For the compound `O=C(NO)[C@H]1CCCCN1S(=O)(=O)N1CC=C(c2ccc(F)cc2)CC1`, the figures for the Cmax in data set [1] and in data set [2] were 117 ng/mL and 3060 ng/mL, respectively. The compound also came in with an IC50 in the data set on MONO-MAC-6 (Homo sapiens, MONO-MAC-6) of 300 nM.

In the case of `CCc1cccc(C2=CCN(S(=O)(=O)N3CCCC[C@@H]3C(=O)NO)CC2)c1`, half-maximal inhibition in the data set with MONO-MAC-6 (Homo sapiens, MONO-MAC-6) (IC50) was put at 320 nM.

Turning to `O=C(NO)[C@H]1CCCCN1S(=O)(=O)N1CC=C(c2ccc(Cl)cc2)CC1` (stereo in doubt; 3), the IC50 with MONO-MAC-6 (Homo sapiens, MONO-MAC-6) amounted to 430 nM.

In the data set on MONO-MAC-6 (Homo sapiens, MONO-MAC-6), `COc1cccc(C2=CCN(S(=O)(=O)N3CCCC[C@@H]3C(=O)NO)CC2)c1` had an IC50 of 260 nM.

In the case of `C[C@@H](NS(=O)(=O)N1CC=C(c2ccc(Cl)cc2)CC1)C(=O)NO`, the IC50 with MONO-MAC-6 (Homo sapiens, MONO-MAC-6) turned out to be 1240 nM.

`O=C(NO)[C@H]1CN(C(=O)N2CCOCC2)CCN1S(=O)(=O)N1CC=C(c2ccc(F)cc2)CC1` registered an AUC in [3] of 7940 ng·h/mL. The compound further displayed an IC50 in the data set with MONO-MAC-6 (Homo sapiens, MONO-MAC-6) of 350 nM.

`O=C(NO)[C@H]1CCCCN1S(=O)(=O)N1CC=C(c2ccc(Cl)cc2)CC1` (stereo in doubt; 6): the IC50 in the data set on MONO-MAC-6 (mono-mac-6) worked out at 480 nM.

The compound `O=C(NO)[C@H]1CCCCN1S(=O)(=O)N1CC=C(c2ccc(Br)cc2)CC1` had an IC50 with MONO-MAC-6 (Homo sapiens, MONO-MAC-6) of 1200 nM.

`CCCc1ccc(C2=CCN(S(=O)(=O)N3CCCC[C@@H]3C(=O)NO)CC2)cc1`: the IC50 in the data set on MONO-MAC-6 (Homo sapiens, MONO-MAC-6) stood at 2600 nM.

Turning to `O=C(NO)[C@H]1CCCCN1S(=O)(=O)N1CC=C(c2ccc(F)c(F)c2)CC1`, the IC50 with MONO-MAC-6 (Homo sapiens, MONO-MAC-6) turned out to be 1200 nM.

For the compound `CN(C)S(=O)(=O)N1CCN(S(=O)(=O)N2CC=C(c3ccc(F)cc3)CC2)[C@@H](C(=O)NO)C1`, in [3], the AUC stood at 3270 ng·h/mL. The same compound gave an IC50 with MONO-MAC-6 (Homo sapiens, MONO-MAC-6) of 250 nM.

Regarding `O=C(NO)[C@H]1CCCCN1S(=O)(=O)N1CC=C(c2ccc(Oc3ccccc3)cc2)CC1`, the IC50 with MONO-MAC-6 (Homo sapiens, MONO-MAC-6) amounted to 3300 nM.

For the compound `O=C(NO)[C@H]1CNCCN1S(=O)(=O)N1CC=C(c2ccc(F)cc2)CC1`, the AUC entry in the data set on Rattus norvegicus was “Not Active”. This compound registered a half-inhibitory concentration (IC50) with MONO-MAC-6 (Homo sapiens, MONO-MAC-6) of 3560 nM.

In turn, `CNC(=O)N1CCN(S(=O)(=O)N2CC=C(c3ccc(F)cc3)CC2)[C@@H](C(=O)NO)C1` registered an AUC in [3] of 1790 ng·h/mL. For the same compound, it took 120 nM to reach half-maximal inhibition with MONO-MAC-6 (Homo sapiens, MONO-MAC-6) (IC50).

Consider `CN(C)C(=O)N1CCN(S(=O)(=O)N2CC=C(c3ccc(F)cc3)CC2)[C@@H](C(=O)NO)C1`, for which the Cmax in data set [1] was found to be 182 ng/mL; in data set [2] it was 1050 ng/mL. The compound further registered an AUC in data set [3] of 6180 ng·h/mL. Moreover, in data set [4], the concentration at 2 h worked out at 110 ng/mL. Further, in [5], the concentration at 7 h stood at 233 ng/mL. This compound returned an IC50 with MONO-MAC-6 (Homo sapiens, MONO-MAC-6) of 200 nM. Moreover, the Positive paws turned out to be 27% in the data set with Mus musculus [6]; 33% in the data set with Mus musculus [7]; 30% with Mus musculus [8]; 4% in the data set on Mus musculus [14]; 41% with Mus musculus [25]. For the same compound, in the data set with Mus musculus [9], the inhibition in vivo at 120 mg/kg was determined as 96%. This compound also came in with an inhibition in vivo at 15 mg/kg with Mus musculus [10] of 49%. In the data set on Mus musculus [11], this compound gave an inhibition in vivo at 2 mg/kg of 67%. This compound displayed an inhibition in vivo at 45 mg/kg with Mus musculus [12] of 56%. The inhibition in vivo at 5 mg/kg in the data set with Mus musculus [13] is 69%. In addition, the Severity was 1 with Mus musculus [15]; 2.8 in the data set on Mus musculus [16]; 2.7 with Mus musculus [17]; 2.9 with Mus musculus [18]; 2.4 in the data set with Mus musculus [19]. Moreover, the Max score stood at 0.3 in the data set with Mus musculus [20]; 4.5 with Mus musculus [21]; 2.9 with Mus musculus [22]; 3.8 in the data set with Mus musculus [23]; 2.7 in the data set with Mus musculus [24].

For `CN(C)P(=O)(N(C)C)N1CCN(S(=O)(=O)N2CC=C(c3ccc(F)cc3)CC2)[C@@H](C(=O)NO)C1`, the AUC in data set [3] was 1540 ng·h/mL. The same compound had an IC50 in the data set with MONO-MAC-6 (Homo sapiens, MONO-MAC-6) of 510 nM.

`O=C(NO)[C@H]1CCCCN1S(=O)(=O)N1CC=C(c2ccccc2)CC1`: the midpoint of inhibition in the data set on MONO-MAC-6 (Homo sapiens, MONO-MAC-6), the IC50, lay at 240 nM.

With `C[C@@H](NS(=O)(=O)N1CCC(c2ccc(Cl)cc2)CC1)C(=O)NO`, in the data set with MONO-MAC-6 (Homo sapiens, MONO-MAC-6), 5800 nM corresponded to half-maximal inhibition (IC50). This IC50 is about 24-fold higher than that of the compound before.

Take `O=C(NO)[C@H]1CCCCN1S(=O)(=O)N1CC=C(c2cccc(-c3ccccc3)c2)CC1`: the IC50 in the data set on MONO-MAC-6 (Homo sapiens, MONO-MAC-6) worked out at 7600 nM. The IC50 values of the last two compounds are within 1.5-fold of each other.

In the data set with MONO-MAC-6 (Homo sapiens, MONO-MAC-6), `COc1ccc(C2=CCN(S(=O)(=O)N3CCCC[C@@H]3C(=O)NO)CC2)cc1` registered an IC50 of 15000 nM. Compared with the last compound, the IC50 is about 2-fold higher.

`O=C(NO)[C@H]1CN(CC(F)(F)F)CCN1S(=O)(=O)N1CC=C(c2ccc(F)cc2)CC1` had an AUC in [3] of 3260 ng·h/mL. This compound also returned an IC50 in the data set with MONO-MAC-6 (Homo sapiens, MONO-MAC-6) of 300 nM.

Take `O=C(NO)[C@H]1CCCCN1S(=O)(=O)N1CC=C(c2ccc(-c3ccccc3)cc2)CC1`: the IC50 in the data set with MONO-MAC-6 (Homo sapiens, MONO-MAC-6) worked out at 19000 nM.
